Measurements published in ChEMBL document CHEMBL3994622, “Design and synthesis of new RAF kinase-inhibiting antiproliferative quinoline derivatives. Part 2: Diarylurea derivatives” (Eur J Med Chem, 2017).

Legend:
Assay type in all cases: functional
SF-539 = assay: Growth inhibition of human SF539 cells assessed as cell growth at 0.3 uM incubated for 48 hrs by sulforhodamine B assay relative to control; details: SF-539, 48 h, read-out: Activity
DU-145 = assay: Growth inhibition of human DU145 cells assessed as cell growth at 30 uM incubated for 48 hrs by sulforhodamine B assay relative to control; details: DU-145, 48 h, read-out: Activity
ACHN [1] = assay: Growth inhibition of human ACHN cells assessed as cell growth at 0.003 uM incubated for 48 hrs by sulforhodamine B assay relative to control; details: read-out: Activity
NCI-H460 [2] = assay: Growth inhibition of human NCI-H460 cells assessed as cell growth at 30 uM incubated for 48 hrs by sulforhodamine B assay relative to control; details: NCI-H460, 48 h, read-out: Activity
T47D = assay: Growth inhibition of human T47D cells assessed as cell growth at 3 uM incubated for 48 hrs by sulforhodamine B assay relative to control; details: read-out: Activity
ACHN [3] = assay: Growth inhibition of human ACHN cells assessed as cell growth at 3 uM incubated for 48 hrs by sulforhodamine B assay relative to control; details: read-out: Activity
MDA-MB-231 [4] = assay: Growth inhibition of human MDA-MB-231 cells assessed as cell growth at 0.3 uM incubated for 48 hrs by sulforhodamine B assay relative to control; details: MDA-MB-231, 48 h, read-out: Activity
SF-295 = assay: Growth inhibition of human SF295 cells assessed as cell growth at 0.003 uM incubated for 48 hrs by sulforhodamine B assay relative to control; details: SF-295, 48 h, read-out: Activity
NCI-H460 [5] = assay: Growth inhibition of human NCI-H460 cells assessed as cell growth at 0.3 uM incubated for 48 hrs by sulforhodamine B assay relative to control; details: NCI-H460, 48 h, read-out: Activity
HT-29 = assay: Growth inhibition of human HT-29 cells assessed as cell growth at 3 uM incubated for 48 hrs by sulforhodamine B assay relative to control; details: HT-29, 48 h, read-out: Activity
HCC 2998 = assay: Growth inhibition of human HCC2998 cells assessed as cell growth at 0.003 uM incubated for 48 hrs by sulforhodamine B assay relative to control; details: HCC 2998, 48 h, read-out: Activity
SR = assay: Growth inhibition of human SR cells assessed as cell growth at 0.03 uM incubated for 48 hrs by sulforhodamine B assay relative to control; details: read-out: Activity
PC-3 = assay: Growth inhibition of human PC3 cells assessed as cell growth at 0.03 uM incubated for 48 hrs by sulforhodamine B assay relative to control; details: PC-3, 48 h, read-out: Activity
COLO 205 = assay: Growth inhibition of human COLO205 cells assessed as cell growth at 0.3 uM incubated for 48 hrs by sulforhodamine B assay relative to control; details: COLO 205, 48 h, read-out: Activity
A549 = assay: Growth inhibition of human A549/ATCC cells assessed as cell growth at 3 uM incubated for 48 hrs by sulforhodamine B assay relative to control; details: A549, 48 h, read-out: Activity
HCT-15 = assay: Growth inhibition of human HCT15 cells assessed as cell growth at 0.003 uM incubated for 48 hrs by sulforhodamine B assay relative to control; details: HCT-15, 48 h, read-out: Activity
K562 [6] = assay: Growth inhibition of human K562 cells assessed as cell growth at 30 uM incubated for 48 hrs by sulforhodamine B assay relative to control; details: K562, 48 h, read-out: Activity
OVCAR-4 [7] = assay: Growth inhibition of human OVCAR4 cells assessed as cell growth at 0.003 uM incubated for 48 hrs by sulforhodamine B assay relative to control; details: OVCAR-4, 48 h, read-out: Activity
MDA-MB-435 = assay: Growth inhibition of human MDA-MB-435 cells assessed as cell growth at 1 uM incubated for 48 hrs by sulforhodamine B assay relative to control; details: MDA-MB-435, 48 h, read-out: Activity
NCI-H322M [8] = assay: Growth inhibition of human NCI-H322M cells assessed as cell growth at 100 uM incubated for 48 hrs by sulforhodamine B assay relative to control; details: read-out: Activity
SK-MEL-28 = assay: Growth inhibition of human SK-MEL-28 cells assessed as cell growth at 0.1 uM incubated for 48 hrs by sulforhodamine B assay relative to control; details: SK-MEL-28, 48 h, read-out: Activity
MDA-MB-231 [9] = assay: Growth inhibition of human MDA-MB-231 cells assessed as cell growth at 0.01 uM incubated for 48 hrs by sulforhodamine B assay relative to control; details: MDA-MB-231, 48 h, read-out: Activity
HL-60(TB) = assay: Growth inhibition of human HL-60(TB) cells assessed as cell growth at 100 uM incubated for 48 hrs by sulforhodamine B assay relative to control; details: HL-60, 48 h, read-out: Activity
K562 [10] = assay: Growth inhibition of human K562 cells assessed as cell growth at 1 uM incubated for 48 hrs by sulforhodamine B assay relative to control; details: K562, 48 h, read-out: Activity
NCI-H322M [11] = assay: Growth inhibition of human NCI-H322M cells assessed as cell growth at 0.1 uM incubated for 48 hrs by sulforhodamine B assay relative to control; details: read-out: Activity
EKVX = assay: Growth inhibition of human EKVX cells assessed as cell growth at 10 uM incubated for 48 hrs by sulforhodamine B assay relative to control; details: read-out: Activity
HOP-62 [12] = assay: Growth inhibition of human HOP62 cells assessed as cell growth at 0.01 uM incubated for 48 hrs by sulforhodamine B assay relative to control; details: HOP-62, 48 h, read-out: Activity
Hs-578T [13] = assay: Growth inhibition of human Hs 578T cells assessed as cell growth at 0.01 uM incubated for 48 hrs by sulforhodamine B assay relative to control; details: read-out: Activity
KM12 = assay: Growth inhibition of human KM12 cells assessed as cell growth at 0.01 uM incubated for 48 hrs by sulforhodamine B assay relative to control; details: KM12, 48 h, read-out: Activity
UACC-62 = assay: Growth inhibition of human UACC62 cells assessed as cell growth at 10 uM incubated for 48 hrs by sulforhodamine B assay relative to control; details: UACC-62, 48 h, read-out: Activity
RPMI-8226 = assay: Growth inhibition of human RPMI8226 cells assessed as cell growth at 10 uM incubated for 48 hrs by sulforhodamine B assay relative to control; details: RPMI-8226, 48 h, read-out: Activity
MCF7 = assay: Growth inhibition of human MCF7 cells assessed as cell growth at 0.1 uM incubated for 48 hrs by sulforhodamine B assay relative to control; details: MCF7, 48 h, read-out: Activity
HOP-62 [14] = assay: Growth inhibition of human HOP62 cells assessed as cell growth at 10 uM incubated for 48 hrs by sulforhodamine B assay relative to control; details: HOP-62, 48 h, read-out: Activity
OVCAR-4 [15] = assay: Growth inhibition of human OVCAR4 cells assessed as cell growth at 1 uM incubated for 48 hrs by sulforhodamine B assay relative to control; details: OVCAR-4, 48 h, read-out: Activity
Hs-578T [16] = assay: Growth inhibition of human Hs 578T cells assessed as cell growth at 0.1 uM incubated for 48 hrs by sulforhodamine B assay relative to control; details: read-out: Activity

Compound	growth at 0.3 µM (SF-539) [%]	growth at 30 µM (DU-145) [%]	growth at 0.003 µM (ACHN [1]) [%]	growth at 30 µM (NCI-H460 [2]) [%]	growth at 3 µM (T47D) [%]	growth at 3 µM (ACHN [3]) [%]	growth at 0.3 µM (MDA-MB-231 [4]) [%]	growth at 0.003 µM (SF-295) [%]	growth at 0.3 µM (NCI-H460 [5]) [%]	growth at 3 µM (HT-29) [%]	growth at 0.003 µM (HCC 2998) [%]	growth at 0.03 µM (SR) [%]	growth at 0.03 µM (PC-3) [%]	growth at 0.3 µM (COLO 205) [%]	growth at 3 µM (A549) [%]	growth at 0.003 µM (HCT-15) [%]	growth at 30 µM (K562 [6]) [%]	growth at 0.003 µM (OVCAR-4 [7]) [%]	growth at 1 µM (MDA-MB-435) [%]	growth at 100 µM (NCI-H322M [8]) [%]	further results
COc1cc2cc(Oc3ccc(NC(=O)Nc4ccc(Cl)c(C(F)(F)F)c4)cc3)c(C)nc2cc1OC	107	-70	95	-62	19	8	87	90	100	8	102	92	94	102	10	95	-60	93			
COc1cc2cc(Oc3ccc(NC(=O)Nc4cc(C(F)(F)F)cc(C(F)(F)F)c4)cc3)c(C)nc2cc1OC																			84	-91	growth at 0.1 µM (SK-MEL-28): 102%; growth at 0.01 µM (MDA-MB-231 [9]): 101%; growth at 100 µM (HL-60(TB)): -56%; growth at 1 µM (K562 [10]): 32%; growth at 0.1 µM (NCI-H322M [11]): 90%; growth at 10 µM (EKVX): -55%; growth at 0.01 µM (HOP-62 [12]): 88%; growth at 0.01 µM (Hs-578T [13]): 98%; growth at 0.01 µM (KM12): 98%; growth at 10 µM (UACC-62): -74%; growth at 10 µM (RPMI-8226): -8%; growth at 0.1 µM (MCF7): 92%; growth at 10 µM (HOP-62 [14]): -82%; growth at 1 µM (OVCAR-4 [15]): 58%; growth at 0.1 µM (Hs-578T [16]): 109%
COc1cc2cc(Oc3ccc(NC(=O)Nc4ccc(Cl)c(Cl)c4)cc3)c(C)nc2cc1OC																			85	-13	growth at 0.1 µM (SK-MEL-28): 91%; growth at 0.01 µM (MDA-MB-231 [9]): 93%; growth at 100 µM (HL-60(TB)): -41%; growth at 1 µM (K562 [10]): 88%; growth at 0.1 µM (NCI-H322M [11]): 103%; growth at 10 µM (EKVX): -2%; growth at 0.01 µM (HOP-62 [12]): 102%; growth at 0.01 µM (Hs-578T [13]): 100%; growth at 0.01 µM (KM12): 103%; growth at 10 µM (UACC-62): 25%; growth at 10 µM (RPMI-8226): -22%; growth at 0.1 µM (MCF7): 92%; growth at 10 µM (HOP-62 [14]): 8%; growth at 1 µM (OVCAR-4 [15]): 93%; growth at 0.1 µM (Hs-578T [16]): 99%
Cc1nc2cc(O)c(O)cc2cc1Oc1ccc(NC(=O)Nc2ccc(Cl)c(Cl)c2)cc1	99	-10	103	-44	100	51	118	93	99	98	99	99	97	109	98	100	-3	97			
